Measured values as given in patent US20190380954A1, “Bone Regeneration Agent” (Kao Corporation, priority 2017, published 2019).

Legend:
[1] = tested on: alveolar bone of rats with ligature-induced periodontitis; conditions: niacin 25 mM in PBS, 100 μL dropped onto right and left second molars twice a day for 4 weeks after ligature removal; compared to PBS group; base line group 0%, Sham group 100%; Tukey, 5%
Protocol: Twenty-eight 8-week-old male Wister Rats were purchased from Japan SLC, Inc., and the rats were acclimated for one week. Subsequently, the body weights of the rats were measured, and the rats were assigned into four groups (base line group, Sham group, PBS group, and niacin group) such that the average body weights of the groups would be even.
Under isoflurane inhalation anesthesia, No. 3-0 nylon sutures (manufactured by Akiyama Seisakusho Co., Ltd.) were ligated to the right and left second molars in the upper jaw of the rats of the base line group, PBS group, and niacin group to induce periodontitis, and the rats of the respective groups were reared for two weeks. […]
After rearing for two weeks, the ligatures (No. 3-0 nylon sutures described above) were excised from the rats of the PBS group and the niacin group. For the base line group, the rats were euthanized by bleeding from the abdominal aorta under isoflurane inhalation anesthesia, and the alveolar bone resorption depths of the respective groups were measured by the following method. […]
The alveolar bone regeneration amount of the base line group was designated as 0%, and the alveolar bone regeneration amount of the Sham group was designated as 100%. Thus, the alveolar bone regeneration amounts of the PBS group and the niacin group were calculated from the average alveolar bone resorption depth thus calculated. […]

gums = conditions: niacin or an ester compound thereof, intraoral composition; cited from earlier work
[2] = tested on: gums / periodontal pocket; conditions: blood circulation enhancers such as vitamin E; cited from earlier work
[3] = tested on: periodontal disease model rat; conditions: suppression of alveolar bone resorption is not reported; cited from earlier work

Row | Compound | regeneration amount of the alveolar bone [1] | blood circulation in the gums (gums) | Gingival index (swelling of gums) [2] | Periodontal probing depth (depth of periodontal pocket, reflecting extent of alveolar bone resorption) [2] | inflammatory response [3]
1 | O=C(O)c1cccnc1 [niacin, niacin (nicotinic acid)] | significantly increased | promotes blood circulation in the gums | – | – | –
2 | vitamin E | – | – | do not improve | do not improve | suppresses inflammatory response
